Experimental data taken from ChEMBL document CHEMBL1201862, “PubChem BioAssay data set” (2004).
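In this assay, cells in 96-well plates receive the compound at five concentrations for 48 hours. Endpoints are linearly interpolated between the surrounding concentrations. Abbreviation: GI50, concentration required for 50% inhibition of growth.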 Active and inactive are the calls of the source. Cut-off read from the data, not from the text of the source: active = GI50 up to about 1.1 µM and inactive = higher.

Key:
Assay in all cases: growth of human tumour cells (NCI), 48 h
SNB-19 = tested on: SNB-19
SW-620 = tested on: SW-620
A498 = tested on: A498
DU-145 = tested on: DU-145
HCT-116 = tested on: HCT-116
NCI-H460 = tested on: NCI-H460
PC-3 = tested on: PC-3
MDA-MB-231 = tested on: MDA-MB-231
SK-MEL-2 = tested on: SK-MEL-2
HCT-15 = tested on: HCT-15
OVCAR-5 = tested on: OVCAR-5
NCI/ADR-RES = tested on: NCI/ADR-RES
MDA-MB-435 = tested on: MDA-MB-435
COLO 205 = tested on: COLO 205
K562 = tested on: K562
BT-549 = tested on: BT-549
KM12 = tested on: KM12
RXF 393 = tested on: RXF 393
M14 = tested on: M14
HOP-92 = tested on: HOP-92

| SMILES | GI50 (SNB-19) | GI50 (SW-620) | GI50 (A498) | GI50 (DU-145) | GI50 (HCT-116) | GI50 (NCI-H460) | GI50 (PC-3) | GI50 (MDA-MB-231) | GI50 (SK-MEL-2) | GI50 (HCT-15) [µM] | GI50 (OVCAR-5) | GI50 (NCI/ADR-RES) | GI50 (MDA-MB-435) | GI50 (COLO 205) | GI50 (K562) | GI50 (BT-549) | GI50 (KM12) | GI50 (RXF 393) | GI50 (M14) | GI50 (HOP-92) |
| --- | --- | --- | --- | --- | --- | --- | --- | --- | --- | --- | --- | --- | --- | --- | --- | --- | --- | --- | --- | --- |
| Nc1cc(OCc2ccccc2)c(OCc2ccccc2)cc1C=O | 32.9 µM (inactive) | 46.2 µM (inactive) | 11.6 µM (inactive) | 31.6 µM (inactive) | 21.2 µM (inactive) | 14.1 µM (inactive) | 35.1 µM (inactive) | 44.2 µM (inactive) | 28.2 µM (inactive) | 19.8 | 55.2 µM (inactive) | 33 µM (inactive) | 39.8 µM (inactive) | 24.7 µM (inactive) | 44.4 µM (inactive) | 14.5 µM (inactive) | 23.3 µM (inactive) |  |  |  |
| CC(C)C1CSC2N1C(=O)C2(OCc1ccccc1)C1CC1 (stereo unspecified) | > 100 µM (inactive) | > 100 µM (inactive) | 51.3 µM (inactive) | > 100 µM (inactive) | > 100 µM (inactive) | > 100 µM (inactive) | 69 µM (inactive) | > 100 µM (inactive) |  | > 100 | > 100 µM (inactive) | 63.4 µM (inactive) | > 100 µM (inactive) | > 100 µM (inactive) | 67.8 µM (inactive) | > 100 µM (inactive) | > 100 µM (inactive) | > 100 µM (inactive) | > 100 µM (inactive) | > 100 µM (inactive) |
| COc1ccc(-n2cnc3c(NCC(=O)O)ncnc32)cc1 | > 100 µM (inactive) | > 100 µM (inactive) | > 100 µM (inactive) | > 100 µM (inactive) | > 100 µM (inactive) | > 100 µM (inactive) | > 100 µM (inactive) | > 100 µM (inactive) | > 100 µM (inactive) | > 100 | > 100 µM (inactive) | > 100 µM (inactive) | > 100 µM (inactive) | > 100 µM (inactive) | > 100 µM (inactive) | > 100 µM (inactive) | > 100 µM (inactive) |  | > 100 µM (inactive) | > 100 µM (inactive) |
| Cc1c2c(n(CCc3ccc(Cl)cc3)c1C)NC(c1ccccc1)C(C#N)S2(=O)=O (stereo unspecified) | > 100 µM (inactive) | > 45.9 µM (inactive) | > 85.7 µM (inactive) | > 60 µM (inactive) | 15.2 µM (inactive) | 44.1 µM (inactive) | 19.6 µM (inactive) | 11.5 µM (inactive) | 22.4 µM (inactive) | > 48 | > 100 µM (inactive) | > 63 µM (inactive) | 11.1 µM (inactive) | 8.36 µM (inactive) | 5.14 µM (inactive) | 37 µM (inactive) | 18.3 µM (inactive) |  | 27.2 µM (inactive) | 17.5 µM (inactive) |
| COc1cc(NS(C)(=O)=O)ccc1Nc1ccnc2ccc3[nH]ccc3c12 | 15.5 µM (inactive) | 13.3 µM (inactive) | 16.8 µM (inactive) | 14.4 µM (inactive) | 12.2 µM (inactive) | 18.2 µM (inactive) | 13.1 µM (inactive) | 11.6 µM (inactive) | 16.7 µM (inactive) | 58.3 | 16.6 µM (inactive) | > 100 µM (inactive) | 15.6 µM (inactive) | 17 µM (inactive) | 10.9 µM (inactive) | 14.6 µM (inactive) | 13.8 µM (inactive) |  | 16.4 µM (inactive) | 11.9 µM (inactive) |
| CCc1n[nH]c(=O)n1-c1ccncc1 | > 100 µM (inactive) | > 100 µM (inactive) | > 100 µM (inactive) | > 100 µM (inactive) | > 100 µM (inactive) | > 100 µM (inactive) | > 100 µM (inactive) | > 100 µM (inactive) |  | > 100 | > 100 µM (inactive) | > 100 µM (inactive) | > 100 µM (inactive) | > 100 µM (inactive) | > 100 µM (inactive) | > 100 µM (inactive) | > 100 µM (inactive) | > 100 µM (inactive) | > 100 µM (inactive) | > 100 µM (inactive) |
| CCOC(=O)/C=C(\C(=O)OCC)n1ccc(=O)n(Cc2cnnn2COCCOC(C)=O)c1=O | > 46.7 µM (inactive) | 2.16 µM (inactive) | 23 µM (inactive) | 18.8 µM (inactive) | 9.25 µM (inactive) | 14.2 µM (inactive) | 14.3 µM (inactive) | 17.6 µM (inactive) | 18.4 µM (inactive) | 7.67 | 15.6 µM (inactive) | 22.9 µM (inactive) | 8.59 µM (inactive) | 1.77 µM (inactive) | 3.48 µM (inactive) | 8.28 µM (inactive) | 16.1 µM (inactive) | 1.85 µM (inactive) | 15.1 µM (inactive) |  |
| CN(C)c1ccc(/C=C2\C[C@H]3[C@@H]4CCc5cc(OCCN6CCCC6)ccc5[C@H]4CC[C@]3(C)C2=O)cc1 | 1.89 µM (inactive) |  | 1.96 µM (inactive) | 1.89 µM (inactive) | 1.21 µM (inactive) | 1.59 µM (inactive) | 1.78 µM (inactive) | 1.53 µM (inactive) | 1.98 µM (inactive) | 1.26 | 2.03 µM (inactive) | 1.91 µM (inactive) | 1.55 µM (inactive) | 1.52 µM (inactive) | 1.08 µM (active) | 3.39 µM (inactive) | 1.74 µM (inactive) | 1.57 µM (inactive) |  |  |
| CC(C)(O)C1OCC(C2CCC3(C)C4=CCC5C(C)(C)C(O)CCC5(C)C4CCC23C)CC1O (stereo unspecified) | 16.4 µM (inactive) | 15.2 µM (inactive) | 16.7 µM (inactive) | 17.3 µM (inactive) | 14.5 µM (inactive) | 13.4 µM (inactive) | 10.5 µM (inactive) | 15.3 µM (inactive) | 22.8 µM (inactive) | 14.8 | 19.5 µM (inactive) | 12.6 µM (inactive) | 15.5 µM (inactive) | 15 µM (inactive) | 4.44 µM (inactive) | 11.1 µM (inactive) | 14 µM (inactive) |  | 27.7 µM (inactive) | 12.6 µM (inactive) |
| C=CCN(c1cc(OC)c2[nH]cc(C)c2c1[N+](=O)[O-])S(C)(=O)=O | > 100 µM (inactive) | > 100 µM (inactive) | > 100 µM (inactive) | > 100 µM (inactive) | > 100 µM (inactive) | > 100 µM (inactive) | > 100 µM (inactive) | > 100 µM (inactive) | > 100 µM (inactive) | > 100 | > 100 µM (inactive) | > 100 µM (inactive) | > 100 µM (inactive) | > 100 µM (inactive) | > 100 µM (inactive) | > 100 µM (inactive) | > 100 µM (inactive) | > 100 µM (inactive) | > 100 µM (inactive) |  |
| S=C1N(/N=C/c2c3ccccc3cc3ccccc23)C(=N\c2ccccc2)/C(=N/c2ccccc2)N1c1ccccc1 | > 100 µM (inactive) | > 100 µM (inactive) |  | > 100 µM (inactive) | > 100 µM (inactive) | > 100 µM (inactive) | > 100 µM (inactive) | > 100 µM (inactive) | > 100 µM (inactive) | > 100 | > 100 µM (inactive) | > 100 µM (inactive) | > 100 µM (inactive) | > 100 µM (inactive) | > 100 µM (inactive) | > 100 µM (inactive) | > 100 µM (inactive) | > 100 µM (inactive) | > 100 µM (inactive) | > 100 µM (inactive) |
| COc1ccccc1C1Nn2c(nc3ccccc3c2=O)N1c1ccc(C)cc1 (stereo unspecified) | 6.59 µM (inactive) | 5.28 µM (inactive) |  | 11 µM (inactive) | 4.23 µM (inactive) | 3.37 µM (inactive) | 2.71 µM (inactive) | 5.62 µM (inactive) | 11.4 µM (inactive) | 3.49 | 10.4 µM (inactive) | 9.06 µM (inactive) | 8.2 µM (inactive) | 6.65 µM (inactive) | 7.83 µM (inactive) | 21.8 µM (inactive) | 11.2 µM (inactive) | 10 µM (inactive) | 10.5 µM (inactive) | 10.4 µM (inactive) |
| CCCCCCCCCCCCCCCCOCC(CC(F)(F)P(=O)(O)O)OC(C)=O (stereo unspecified) | > 50 µM (inactive) | > 50 µM (inactive) | > 50 µM (inactive) | > 50 µM (inactive) | > 50 µM (inactive) | > 50 µM (inactive) | > 50 µM (inactive) | > 50 µM (inactive) | > 50 µM (inactive) | > 50 | > 50 µM (inactive) | > 50 µM (inactive) | > 50 µM (inactive) | > 50 µM (inactive) | > 50 µM (inactive) | > 50 µM (inactive) | > 50 µM (inactive) |  | > 50 µM (inactive) | > 50 µM (inactive) |
| NC(=O)c1nnn(-c2ccccc2)c1O | > 100 µM (inactive) | > 100 µM (inactive) | > 100 µM (inactive) | > 100 µM (inactive) | > 100 µM (inactive) | > 100 µM (inactive) | > 100 µM (inactive) | > 100 µM (inactive) | > 100 µM (inactive) | > 100 | > 100 µM (inactive) | > 100 µM (inactive) | > 100 µM (inactive) | > 100 µM (inactive) | > 100 µM (inactive) | > 100 µM (inactive) | > 100 µM (inactive) | > 100 µM (inactive) | > 100 µM (inactive) |  |
| c1ccc([P+](c2ccccc2)(c2ccccc2)c2ccc(-c3ccc([P+](c4ccccc4)(c4ccccc4)c4ccccc4)cc3)cc2)cc1 | 50.7 µM (inactive) | 30.6 µM (inactive) | 3.97 µM (inactive) | 63.8 µM (inactive) | 18.2 µM (inactive) | 27 µM (inactive) | 35.5 µM (inactive) | 32.8 µM (inactive) | 24.3 µM (inactive) | > 100 | 67.5 µM (inactive) | > 100 µM (inactive) | 26.7 µM (inactive) | 16.4 µM (inactive) | > 100 µM (inactive) | 47.9 µM (inactive) | 75.5 µM (inactive) | 48.1 µM (inactive) | 44.9 µM (inactive) |  |
